Source: patent US20220009914A1, “Analogs of Nitrofuran Antibiotics to Combat Resistance” (The Trustees of Indiana University, priority 2020, published 2022)
Read-outs that look alike come from different tables or passages of the source.

Experiments:
[1] = tested on: FHs 74 Int small intestine cells; assay: in vitro
Description: (§1) Evaluating compound effects on the viability of human colon and small intestine cells. […] Evaluating compound effects on the viability of human colon and small intestine cells. Evaluation of compound cytotoxicities to FHC colon and FHs 74 Int small intestine cells were performed using Alamar Blue-based viability assays. […] FHs 74 Int cells were maintained in Hybri-care medium (ATCC 46-X) supplemented with 30 ng/mL recombinant epidermal growth factor (EGF) and 10% FBS (Midwest Scientific, USDAFBS).

[2] = target: T1, E. coli GroEL (Escherichia coli, UniProt P0A6F5); assay: GroEL-mediated ATPase assay; type: biochemical
T1 construct: made in house; host or cells: NEB 5-alpha E. coli
Description: Evaluating compounds for inhibition in the GroEL-mediated ATPase assay. All compounds were evaluated for inhibiting E. coli GroEL-mediated ATPase activity as per our previously reported procedure although employing only GroEL in solution and not containing GroES or denatured MDH. Evaluating compounds for inhibition in the GroEL-mediated ATPase assay.
Reagent preparation: For this assay, four primary reagent solutions were prepared: 1) GroEL protein solution; 2) ATP initiation solution; 3) EDTA quench solution; 4) malachite green reporter solution. The GroEL protein solution consisted of 100 nM of GroEL in folding buffer (50 mM Tris-HCl, pH 7.4, 50 mM KCl, 10 mM MgCl2, and 1 mM DTT), which was prepared immediately prior to dispensing into the assay plates. For the ATP initiation solution, ATP solid was diluted into folding buffer to a final concentration of 2 mM. Quench solution contained 300 mM EDTA (pH 8.0). The malachite green reporter solution contained 0.034% w/v malachite green, 1.04% w/v ammonium molybdate, 1% Tween-20, and 1 M HCl dissolved in H2O.
Assay Protocol: First, 10 μL aliquots of the GroEL protein solution were dispensed into clear, flat-bottom 384-well polystyrene plates. […] After incubating for 45 minutes at 37° C., 10 μL of the EDTA quench solution was added to quench the reaction cycle. Then, 60 μL of the malachite green reporter solution was added and the plates were incubated at room temperature for 10 min. The absorbance of the malachite green-phosphate complex was measured at 600 nm using a Molecular Devices SpectraMax Plus384 microplate reader. A second set of baseline control plates were prepared analogously, but without GroEL protein solution, to correct for possible interference from compound absorbance or turbidity. […] Results presented represent the averages of IC50 values obtained from at least four replicates.
Evaluating analogs for inhibiting GroEL-mediated ATPase activity. […] Thus, we further tested analogs in a well-established GroEL ATPase assay that employed malachite green to monitor inorganic phosphate liberated as GroEL hydrolyzed ATP. Briefly, a solution of GroEL was incubated with test compounds (8-point, 3-fold dilution series) and the assay was initiated by addition of ATP. After incubating for 45 minutes, the ATPase reaction was quenched by the addition of EDTA. Malachite green was then added to the assay to bind and detect free phosphates in solution (absorbance detection at k=600 nm). If analogs inhibited ATPase activity, then there would be no free phosphates for malachite green to bind, leading to minimal absorbance at 600 nm.

[3] = tested on: FHC colon cells; assay: in vitro
Description: as §1

[4] = target: T2, native MDH (Sus scrofa, UniProt P00346); assay: native MDH enzymatic activity counter-screen; type: biochemical, pig
T2 sequence (P00346 25-338): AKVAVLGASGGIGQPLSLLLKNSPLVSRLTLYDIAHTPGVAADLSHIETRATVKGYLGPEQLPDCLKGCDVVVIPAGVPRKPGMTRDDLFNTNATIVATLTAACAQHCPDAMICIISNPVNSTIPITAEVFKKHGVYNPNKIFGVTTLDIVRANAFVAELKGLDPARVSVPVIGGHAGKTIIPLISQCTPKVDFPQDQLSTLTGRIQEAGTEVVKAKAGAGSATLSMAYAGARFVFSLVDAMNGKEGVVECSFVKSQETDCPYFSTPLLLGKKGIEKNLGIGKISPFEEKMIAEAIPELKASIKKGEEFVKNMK
Description: Reagent Preparations & Assay Protocol: This assay was performed as described above for the GroEL/ES-dMDH refolding assay; however, the assay protocol differed in the sequence of compound addition to the assay plates. The refolding reactions were allowed to proceed for 45 min at 37° C. in the absence of test compounds (complete refolding of MDH occurs), then quenched with the EDTA stock. Compounds were then pin-transferred into the plates after the EDTA quenching step; thus, compound effects are only possible by inhibiting the fully-refolded MDH reporter substrate. […] A340 nm measurements were recorded at 0.5 minutes (start point) and at successive time points until the amount of NADH consumed reached ˜90% (end point, generally between 20-35 minutes). Compounds were tested in 8-point, 3-fold dilution series (62.5 μM to 29 nM during the reporter reaction) in clear, flat-bottom 384-well microtiter plates. IC50 values for the MDH reporter enzyme were determined as described above. Results presented represent the averages of IC50 values obtained from at least five replicates.
Evaluating analogs for inhibiting GroEL/ES-mediated substrate refolding functions. […] We first evaluated all test compounds in our standard GroEL/ES-mediated refolding assays that employ either malate dehydrogenase (MDH) or rhodanese (Rho) as the denatured substrate reporter enzymes. When denatured, these enzymes are efficiently folded by GroEL/ES in the absence of inhibitors, and thus act as reporters to determine the degree of inhibition against the bacterial chaperonin system. Inhibition was examined in the presence of these two orthogonal substrates in order to support that GroEL/ES inhibitors were on-target. To further support on-target effects against GroEL/ES, we counter-screened for inhibition of the native MDH and Rho enzymatic reporter reactions, where test compounds were added after the denatured MDH and Rho substrate enzymes were completely refolded by GroEL/ES.

[5] = in vitro; conditions: human
Description: as §1

[6] = in vitro; conditions: human; remark: listed apart in the source
Description: as §1

[7] = without NfsB nitroreductase, compounds added after refolding, read-out: Native MDH Activity IC50

T1 sequence (P0A6F5 2-548): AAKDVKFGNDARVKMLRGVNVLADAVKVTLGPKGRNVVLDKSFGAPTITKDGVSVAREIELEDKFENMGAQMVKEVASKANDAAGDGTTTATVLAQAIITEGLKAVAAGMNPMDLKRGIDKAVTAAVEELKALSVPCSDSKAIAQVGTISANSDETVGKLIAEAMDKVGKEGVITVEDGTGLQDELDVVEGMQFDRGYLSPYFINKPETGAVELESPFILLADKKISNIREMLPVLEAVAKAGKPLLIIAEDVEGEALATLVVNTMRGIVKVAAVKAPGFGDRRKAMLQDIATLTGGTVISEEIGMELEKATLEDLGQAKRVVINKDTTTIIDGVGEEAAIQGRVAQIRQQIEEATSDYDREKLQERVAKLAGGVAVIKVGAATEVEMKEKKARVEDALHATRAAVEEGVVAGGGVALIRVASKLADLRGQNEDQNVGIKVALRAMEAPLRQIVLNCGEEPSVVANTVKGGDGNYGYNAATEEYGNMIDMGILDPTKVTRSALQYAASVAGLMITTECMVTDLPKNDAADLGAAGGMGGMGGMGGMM

SMILES: O=C(N/N=C/c1ccc([N+](=O)[O-])o1)c1cccs1 [Compound 16, N′-((5-nitrofuran-2-yl)methylene)thiophene-2-carbohydrazide]
- SI (CC50/EC50) Intestine [1]: 168
- cytotoxicity to human cells in words [1]: low to no cytotoxicity
- CC50 ([1]; human, 48 h): 71 µM
- IC50 ([2]; GroEL only, no GroES or dMDH, read-out: GroEL ATPase IC50): > 250 µM
- SI (CC50/EC50) Colon [3]: 198
- CC50 ([3]; human, 48 h): 83 µM

SMILES: O=C(N/N=C/c1ccc(O)cc1)c1ccccc1 [Compound 36, N′-(4-hydroxybenzylidene)benzohydrazide]
- IC50 [4, 7]: > 63 µM
- CC50 at 48 h [5]: > 100 µM
- IC50 [2]: > 250 µM
- CC50 at 48 h [6]: > 100 µM

SMILES: O=C(N/N=C/c1ccc(O)c2ncccc12)c1ccncc1 [Compound 6, N′-((8-hydroxyquinolin-5-yl)methylene)isonicotinohydrazide]
- IC50 [4, 7]: > 63 µM
- CC50 at 48 h [5]: 75 µM
- IC50 [2]: > 250 µM
- CC50 at 48 h [6]: > 100 µM

SMILES: COc1ccc(C(=O)N/N=C/c2ccc(O)cc2)cc1 [Compound 35, N′-(4-hydroxybenzylidene)-4-methoxybenzohydrazide]
- IC50 [4, 7]: > 63 µM
- CC50 at 48 h [5]: > 100 µM
- IC50 [2]: > 250 µM
- CC50 at 48 h [6]: > 100 µM

SMILES: O=C(N/N=C/c1cccc2ncccc12)c1ccccc1 [Compound 32, N′-(quinolin-5-ylmethylene)benzohydrazide]
- IC50 [4, 7]: > 63 µM
- CC50 at 48 h [5]: > 100 µM
- IC50 [2]: > 250 µM
- CC50 at 48 h [6]: > 100 µM

SMILES: O=C(N/N=C/c1ccccc1)c1ccccc1 [Compound 38, N′-benzylidenebenzohydrazide]
- IC50 [4, 7]: > 63 µM
- CC50 at 48 h [5]: > 100 µM
- IC50 [2]: > 250 µM
- CC50 at 48 h [6]: > 100 µM

SMILES: COc1ccc(C(=O)N/N=C/c2ccco2)cc1 [Compound 39, N′-(furan-2-ylmethylene)-4-methoxybenzohydrazide]
- IC50 [4, 7]: > 63 µM
- CC50 at 48 h [5]: > 100 µM
- IC50 [2]: > 250 µM
- CC50 at 48 h [6]: > 100 µM

SMILES: CCN(CC)S(=O)(=O)c1cccc(C(=O)N/N=C/c2ccc([N+](=O)[O-])o2)c1 [Compound 25, N,N-diethyl-3-(2-((5-nitrofuran-2-yl)methylene)hydrazine-1-carbonyl)benzenesulfonamide]
- IC50 [4, 7]: > 63 µM
- CC50 at 48 h [5]: > 100 µM
- IC50 [2]: > 250 µM
- CC50 at 48 h [6]: > 100 µM

SMILES: COc1ccc(C(=O)N/N=C/c2cccc3ccccc23)cc1 [Compound 33, 4-methoxy-N′-(naphthalen-1-ylmethylene)benzohydrazide]
- IC50 [4, 7]: > 63 µM
- CC50 at 48 h [5]: > 100 µM
- IC50 [2]: > 250 µM
- CC50 at 48 h [6]: > 100 µM

SMILES: O=C(N/N=C/c1ccc(O)c2ncccc12)c1cccs1 [Compound 3, N′-((8-hydroxyquinolin-5-yl)methylene)thiophene-2-carbohydrazide]
- IC50 [4, 7]: > 63 µM
- CC50 at 48 h [5]: 86 µM
- IC50 [2]: > 250 µM
- CC50 at 48 h [6]: 85 µM

SMILES: CCOc1ccc(S(=O)(=O)Nc2ccc(C(=O)N/N=C/c3ccc([N+](=O)[O-])o3)cc2)cc1 [Compound 28, 4-ethoxy-N-(4-(2-((5-nitrofuran-2-yl)methylene)hydrazine-1-carbonyl)phenyl)benzenesulfonamide]
- IC50 [4, 7]: > 63 µM
- CC50 at 48 h [5]: > 100 µM
- IC50 [2]: > 250 µM
- CC50 at 48 h [6]: 85 µM

SMILES: COc1ccc(C(=O)N/N=C/c2ccccc2)cc1 [Compound 37, N′-benzylidene-4-methoxybenzohydrazide]
- IC50 [4, 7]: > 63 µM
- CC50 at 48 h [5]: > 100 µM
- IC50 [2]: > 250 µM
- CC50 at 48 h [6]: > 100 µM

SMILES: COc1ccc(C(=O)NN)cc1 [Compound 42, reference compound]
- IC50 [4, 7]: > 63 µM
- CC50 at 48 h [5]: > 100 µM
- IC50 [2]: > 250 µM
- CC50 at 48 h [6]: > 100 µM

SMILES: O=C(N/N=C/c1ccc([N+](=O)[O-])o1)c1ccc(NS(=O)(=O)c2cccs2)cc1 [Compound 26, N-(4-(2-((5-nitrofuran-2-yl)methylene)hydrazine-1-carbonyl)phenyl)thiophene-2-sulfonamide]
- IC50 [4, 7]: > 63 µM
- CC50 at 48 h [5]: 70 µM
- IC50 [2]: > 250 µM
- CC50 at 48 h [6]: > 100 µM

SMILES: O=C1CN(/N=C/c2ccc(O)c3ncccc23)C(=O)N1 [Compound 2, 1-(((8-hydroxyquinolin-5-yl)methylene)amino)imidazolidine-2,4-dione]
- IC50 [4, 7]: > 63 µM
- CC50 at 48 h [5]: > 100 µM
- IC50 [2]: > 250 µM
- CC50 at 48 h [6]: > 100 µM

SMILES: O=C(N/N=C/c1ccc(O)c2ccccc12)c1ccccc1 [Compound 30, N′-((4-hydroxynaphthalen-1-yl)methylene)benzohydrazide]
- IC50 [4, 7]: > 63 µM
- CC50 at 48 h [5]: > 100 µM
- IC50 [2]: > 250 µM
- CC50 at 48 h [6]: > 100 µM

SMILES: COc1ccc(C(=O)N/N=C/c2ccc(O)c3ccccc23)cc1 [Compound 29, N′-((4-hydroxynaphthalen-1-yl)methylene)-4-methoxybenzohydrazide]
- IC50 [4, 7]: > 63 µM
- CC50 at 48 h [5]: > 100 µM
- IC50 [2]: > 250 µM
- CC50 at 48 h [6]: > 100 µM

SMILES: O=C(N/N=C/c1cccc2ccccc12)c1ccccc1 [Compound 34, N′-(naphthalen-1-ylmethylene)benzohydrazide]
- IC50 [4, 7]: > 63 µM
- CC50 at 48 h [5]: > 100 µM
- IC50 [2]: > 250 µM
- CC50 at 48 h [6]: > 100 µM

SMILES: O=C(N/N=C/c1ccc(O)c2ncccc12)c1ccc(O)cc1 [Compound 7, 4-hydroxy-N′-((8-hydroxyquinolin-5-yl)methylene)benzohydrazide]
- IC50 [4, 7]: > 63 µM
- CC50 at 48 h [5]: 67 µM
- IC50 [2]: > 250 µM
- CC50 at 48 h [6]: > 100 µM

SMILES: O=C(N/N=C/c1ccc([N+](=O)[O-])o1)c1ccc(NS(=O)(=O)c2ccc(Br)cc2)cc1 [Compound 27, 4-bromo-N-(4-(2-((5-nitrofuran-2-yl)methylene)hydrazine-1-carbonyl)phenyl)benzenesulfonamide]
- IC50 [4]: > 63 µM
- CC50 at 48 h [5]: > 100 µM
- IC50 [2]: > 250 µM
- CC50 at 48 h [6]: 90 µM

SMILES: COc1ccc(C(=O)N/N=C/c2cccc3ncccc23)cc1 [Compound 31, 4-methoxy-N′-(quinolin-5-ylmethylene)benzohydrazide]
- IC50 [4, 7]: > 63 µM
- CC50 at 48 h [5]: > 100 µM
- IC50 [2]: > 250 µM
- CC50 at 48 h [6]: > 100 µM
